A melting point compilation (Tetko et al.; mined from patent text by program, amines drawn as free bases though some values may be those of a salt)

Row | melting point [°C] | Structure (SMILES)
1 | 181 to 182 | N#Cc1ccc(N(Cc2ccc(OCc3ccccc3)cc2)n2cnnc2)cc1-c1ccco1
2 | 156 to 157 | C=C(CC(=O)c1ccc(Cl)c(Cl)c1)C(=O)O
3 | > 350 | O=c1[nH]nc2c3cc(F)ccc3[nH]c(=O)n12
4 | 66.5 to 67.5 | CC(Oc1ccc(Oc2ccc(C(F)(F)F)cc2Cl)cc1)C(=O)N1CCCO1 (stereo not given)
5 | 66 to 69 | CCCCCCCC(=O)c1ccc(CCC(CC)(CCOC(C)=O)NC(C)=O)cc1 (stereo not given)
6 | 186 to 187 | C=C(C)c1ccc(C2COc3c(C)c(C)c(NC(=O)CC(C)(C)C)c(C)c32)cc1OC (stereo not given)
7 | 220 to 222 | COc1ccccc1-n1c(=O)[nH]c2c(C(N)=O)nc(-c3ccc4nc(C(F)(F)F)[nH]c4c3)nc21
8 | 270 | CC(C)CN1C(=O)N(C)C2(NC(=O)NC2=O)c2ccccc21 (stereo not given)
9 | 44 to 45 | NCC(F)(F)C(F)(F)C(F)(F)C(F)(F)CN
10 | 125 to 127 | CCCCC(CC)COc1ccc2c(-c3ccc(C=O)cc3)c3cc(OCC(CC)CCCC)ccc3c(-c3ccc(C=O)cc3)c2c1 (stereo not given)
11 | 133 to 136 | CCN1CCC(=O)N(c2ccc(Cl)cc2C)C1=S
12 | 210 to 211 | c1ccc2c(c1)nc(NCCN1CCNCC1)c1c3ccccc3[nH]c21
13 | 190 to 191 | NC(=O)COc1ccccc1[N+](=O)[O-]
14 | 163 to 164 | CC(C)COC(=O)C(N)C=CCP(=O)(O)O (stereo not given)
15 | 153 to 156 | CN1CCC(c2c[nH]c3ccc(NC(=O)c4ccc5ccccc5c4)cc23)CC1
16 | 157 to 158 | COC(=O)C1=C(C)NC(=S)N(C(=O)OC(C)C)C1c1cccc([N+](=O)[O-])c1 (stereo not given)
17 | 270 to 271 | Cc1ccc(C(=O)Nc2c(NC(=O)CN3CCN(c4ccccc4)CC3)ccc3c2C(=O)c2ccccc2C3=O)cc1
18 | 87 to 88 | Cc1oc(-c2cccnc2)nc1CCl
19 | 174 to 176 | COC(=O)c1sc2cc(O)ccc2c1C
20 | 195 to 200 | Oc1cc(-c2ccccc2)nc(O)n1
21 | 187 to 190 | Cc1cc(Oc2ccc(C(=O)O)cc2)ccc1[N+](=O)[O-]
22 | 177 to 179 | CC(O)(CCN1C(=O)c2ccccc2C1=O)c1ccc(-c2ccc(Cl)cc2)cc1 (stereo not given)
23 | 191 to 192 | Cc1c(-c2ccccc2)oc2c(C(=O)CCC(=O)O)cccc2c1=O
24 | 160 to 162 | CCOC(=O)c1cc2cc(-c3ccccc3)ccc2nn1

Row | melting point [°C] | Structure (SMILES)
25 | 142 to 145 | c1ccc(C(Nn2cncn2)c2ccccc2)cc1
26 | 199 to 202 | CCOC(=O)c1c(Nc2cccc3ccccc23)n[nH]c1C
27 | 94.5 to 95.5 | CC[C@H](C)[C@H](NC(=O)[C@H](Cc1ccccc1)NC(=O)OCc1ccccc1)C(=O)OC
28 | 52 to 54 | O=C(NCC1CCN(C[C@H]2COc3cccc(Cl)c3O2)CC1)c1cccnc1
29 | 149 to 151 | CC(SC(=O)c1ccccc1)C(=O)c1ccccc1NCC(=O)O (stereo not given)
30 | 175 to 180 | O=C1N[C@@H](c2ccccc2)[C@H]1O
31 | 30 to 31 | CCCC(C)(C)c1cc(N2CCC(C)C2=O)no1 (stereo not given)
32 | 147 to 149 | Cc1nc2c(OCc3c(Cl)ccc(N(C)C(=O)CNC(N)=O)c3Cl)cccn2c1Br
33 | 141 to 142 | Cc1oc(-c2ccccc2)nc1CCOc1ccc(COc2ccccc2CC(=O)O)cc1
34 | 103 | COC(=O)C(CN(c1ccccc1)c1ccccn1)N(C(=O)OC(C)(C)C)C(=O)OC(C)(C)C (stereo not given)
35 | 175 to 178 | C=CCc1ccc(C2=NNC(=O)CC2)cc1O
36 | 206 to 208 | CC/C(=C(\c1ccc(/C=C/C(=O)O)cc1)c1ccc(OC(=O)CN(C)C)cc1)c1ccccc1
37 | 163 to 165 | Cc1cccc(C2=C(c3ccc(S(C)(=O)=O)cc3)CN(C)C2=O)c1
38 | 191 to 192 | CS(=O)(=O)c1ccc(-n2cncc2-c2ccc(Cl)nc2)cc1
39 | 235 to 238 | COc1cc2c(cc1OC)C(c1ccnc(-n3nc(-c4cccnc4)c4ccccc4c3=O)c1)=N[C@H](CO)C2
40 | 192 to 193 | COc1ccc(C(=O)c2cccc(Cc3ccc(=O)[nH]n3)c2Cl)cc1
41 | 198 | C/C(=C\c1ccc(C(=O)O)cc1)c1ccc2c(c1)CCCCC2
42 | 211 | FC(F)(F)c1ccc(-c2cc(C(F)(F)F)n3cnc(-c4ccncc4)c3n2)cc1C(F)(F)F
43 | 260 to 263 | CCNc1nc(-c2ccc(NC(=O)NCc3cccnc3)cc2)ccc1C(=O)NC
44 | 89 to 90 | COC(=O)CCc1cc(C(=O)c2ccccc2Cl)c(N)s1
45 | 258 to 260 | Nc1ccccc1CCCC(C(=O)O)N1C(=O)c2ccccc2C1=O (stereo not given)
46 | 144 to 145 | COC(=O)c1cc(C=NO)cc([N+](=O)[O-])c1
47 | 46 to 47 | CC(C)Nc1nc(Cl)nc(Cl)n1
48 | 169 to 170 | Cc1ccc(S(=O)(=O)OC[C@@H]2COc3ccc4scc(Cl)c4c3O2)cc1

Row | melting point [°C] | Structure (SMILES)
49 | 141 | COc1ccc(C2CC(c3ccc(OC)c(OC)c3)=NN2c2ccc(C(=O)O)cc2)cc1 (stereo not given)
50 | 214 to 215 | CNC(=O)c1cc(C(=O)OCCO)cc(C(=O)NC)n1
51 | 231 to 232 | CCN1C(=O)CCCc2ccc(Nc3ncc(Br)c(Nc4c(F)cccc4C(=O)NC)n3)cc21
52 | 122 to 124 | CC(C)(C)OC(=O)N1C(=O)CCC1c1ccc(Br)cc1 (stereo not given)
53 | 184 to 185 | Cc1ccc(C2C(=O)N(c3ccccc3)N(c3ccccc3)C2=O)cc1
54 | 174 to 176 | CCOc1cc2c(Nc3cc(OC)c(Cl)cc3Cl)c(C#N)cnc2cc1OCCC1CCN(C)CC1
55 | 40 to 42 | Clc1nc(-c2ccccc2)no1
56 | 214 to 217 | CN1CC(=O)Nc2cccc(I)c2C1=O
57 | 83 to 86 | COC(=O)CCCCOc1cc2c(c(Cl)c1Cl)C(=O)C(C)(C1CCCC1)C2 (stereo not given)
58 | 204 to 206 | Nc1c(-c2ccc(Cl)cc2Cl)nnn1Cc1ccc(S(N)(=O)=O)cc1
59 | 151 to 153 | CC(C)(C)OC(=O)NC1CCCCCC=CC2CC2(C(=O)NS(=O)(=O)C2CC2)NC(=O)C2CC(OC(=O)c3cccc(C#N)c3)CN2C1=O (stereo not given)
60 | 113 to 114 | Cc1cccc(C2(O)c3cc(NC(=O)CC(C)(C)C)c(C)c(C)c3OC2(C)C)c1 (stereo not given)
61 | 177 to 179 | NCCCNc1ncc2ncnc(Nc3ccc(F)c(Cl)c3)c2n1
62 | 190 to 192 | Cc1ccc(-c2ccc3c(c2)C=C(C(=O)O)C(C)O3)cc1 (stereo not given)
63 | 116 to 118 | CCCCCCCCCCCCCCOc1ccc(C(=O)Nc2cccc(CBr)c2)cc1
64 | 128 to 135 | CC1C(c2ccccc2)NC(c2ccccc2)C(C)C1OC(=O)CCCCCCCCC(=O)OC1C(C)C(c2ccccc2)NC(c2ccccc2)C1C (stereo not given)
65 | 66 to 68 | NC(=O)COCCN1CCN2c3ccccc3Cc3ccccc3C2C1 (stereo not given)
66 | 114 | CCOP(=O)(OCC)c1cnn(-c2ccc(Cl)c(Cl)c2Cl)c1N
67 | 142 to 145 | Nc1nc(Cc2ccccc2)no1
68 | 154 to 156 | CC(C)CC(=O)Nc1cccc(-c2ccnc3c(-c4cccc(Cl)c4Cl)cnn23)c1
69 | 126 to 127 | CCOC(=O)CC1CCc2cncn2C1c1ccc(C#N)cc1 (stereo not given)
70 | > 350 | Cc1[nH]cc2c(=O)n(-c3ccc(Cl)cc3)nc-2c1-c1cccc(-n2cnnc2)c1
71 | 214 to 215 | CCOC(=O)Cn1cc(C(=O)NCCN(C)C)c2nc3c(C)cccc3cc2c1=O
72 | 147 to 150 | N#Cc1ccc(/C=C/C=C/C=O)cc1

Row | melting point [°C] | Structure (SMILES)
73 | 160 to 162 | COc1ncnc(-c2cc(NS(C)(=O)=O)c(Cl)cc2Cl)c1C#N
74 | 200 to 201 | CN1CCN(Cc2cnc(S)n2Cc2cc(F)cc(F)c2)CC1
75 | 114 to 116 | C[C@@](O)(C(=O)Nc1ccc(S(=O)(=O)c2ccccc2S(C)(=O)=O)cc1Cl)C(F)(F)F
76 | 102 to 130 | CC(C)CC(CS)C(=O)NCCCCCCCC(=O)N[C@@H](CCCNC(=N)N)C(=O)O (stereo not given in full)
77 | 78 to 85 | COC(=O)c1ccc(OCCNC(=O)C2Cc3ccccc3N2S(=O)(=O)c2ccc(-c3ccc(F)cc3Cl)cc2)nc1 (stereo not given)
78 | 154 to 156 | C[C@]12CCC(=O)N[C@@H]1CCc1cc(Sc3cccc(F)c3)ccc12
79 | 82 | CN(C(=O)COc1nc(F)ns1)c1ccccc1
80 | 83 to 85 | O=C(NC[C@@H]1CN2C(=O)C[C@H]2O1)C1CCCCC1 (racemic)
81 | 142 to 143 | Cc1c(C(=O)O)cccc1-n1c(C)ccc1C
82 | 189 to 192 | CN1C(=O)C(C(=O)Nc2ccc(F)cc2)S(=O)(=O)c2ccccc21 (stereo not given)
83 | 224 to 225 | CC(=O)Nc1cnc(-c2ccccc2)nc1N
84 | 197 to 198 | NC(=O)c1[nH]c2ccccc2c1Sc1ccccc1
85 | 168 to 171 | CC(=O)C(Cl)=NNc1ccc(Cl)cc1
86 | 99 to 100 | CC(C)c1nc(C(C)C)c(CSc2cccc(F)c2)c(-c2ccc(F)cc2)c1CO
87 | 112 to 113 | O=C(Cc1ccnc(Cl)n1)c1ccc(F)cc1
88 | 95 to 97 | C/C(Cl)=C/CC(C(=O)O)C(=O)O
89 | 196 to 210 | COc1cc2c(cc1OC)-c1c(O)c(OC)cc3c1C(C2)CN(C)C3 (stereo not given)
90 | 198 to 203 | NNc1ccnc2c(NC(=O)c3ccccc3[N+](=O)[O-])cccc12
91 | 182 | CN(C(=O)Nc1ccc(Cl)cc1)c1nncs1
92 | 167 to 168 | Cc1c(C=NO)c2ccccc2n1-c1ccc(OCc2ccccc2)c(F)c1
93 | 97 to 99 | COc1ccc(C(=O)c2ccc(Br)s2)cc1
94 | 96 to 98 | Cc1ccc(S(=O)(=O)NCCCCOc2ccc(-n3ccnc3)cc2)cc1
95 | 140 to 142 | O=C(O)c1ccccc1C(=O)NCc1ccccn1
96 | 167 to 168 | O=C(Nc1ccccc1)c1nc(-c2ccc(Cl)cc2Cl)c(-c2ccc(Cl)cc2)s1

Row | Structure (SMILES) | melting point [°C]
97 | O=c1oc2ccccc2c(O)c1C1CC(c2ccc(Oc3ccc(-c4ccccc4)cc3)cc2)Cc2ccccc21 (stereo not given) | 124 to 127
98 | Cn1ncc([N+](=O)[O-])c1CBr | 71 to 73
99 | O=C(O)CCCC1CCN(CCOC(c2ccc(F)cc2)c2ccc(F)cc2)CC1 | 145 to 147
100 | OC1c2ccccc2CCC12CCCCN2 (stereo not given) | 125 to 127
